This is an account of results in ChEMBL document CHEMBL4190267, “Discovery of potent molecular chimera (CM358) to treat human metastatic melanoma” (Eur J Med Chem, 2017).

As a reminder, the GI50 is the concentration at which growth is held to half of that of the control.

For data set [1], the system named is A 172. Description: Growth inhibition of human A172 cells up to 25 uM cotreated with camptothecin measured after 24 hrs by XTT assay. It is filed as functional, cell-based. A general note: Tetrazolium dyes change colour on reduction, which living cells bring about.
The test system of data set [2] is PC-3. Description: Growth inhibition of human PC3 cells up to 25 uM cotreated with camptothecin measured after 24 hrs by XTT assay. It is filed as functional, cell-based.
The subject of data set [3] is NCI-H1299. Description: Growth inhibition of human NCI-H1299 cells up to 25 uM cotreated with camptothecin measured after 24 hrs by XTT assay. The data set is classed as functional, cell-based.
In data set [4] the test system is WM 266-4. Description: Growth inhibition of human WM266.4 cells up to 25 uM cotreated with camptothecin measured after 24 hrs by XTT assay. It is filed as functional, cell-based.
The subject of data set [5] is MDA-MB-231. Description: Growth inhibition of human MDA-MB-231 cells up to 25 uM cotreated with camptothecin measured after 24 hrs by XTT assay. The data set is classed as functional, cell-based.
Data set [6] deals with WM 266-4. Description: Antitumor activity against human WM266.4 cells xenografted in athymic Foxn1 nu mouse assessed as tumor growth inhibition at 10 mg/kg, ip cotreated with amonafide administered once daily for 7 days followed by resting period of 2 days repeated for 4 weeks starting from 5 days post tumor inoculation. The data set is classed as functional, organism-based.

Data set [7] concerns WM 266-4. Description: Cell cycle arrest in human WM266.4 cells assessed as accumulation at G2 phase at 10 uM cotreated with amonafide after 8 hrs by propidium iodide staining based flow cytometry (reference value: 11%). It is filed as functional. (In general: Flow cytometry measures light scatter and fluorescence of single cells or particles in a stream.)
In data set [8] the test system is MDA-MB-231. Description: Growth inhibition of human MDA-MB-231 cells preincubated for 6 hrs cotreated with amonafide followed compound washout measured after 24 hrs by XTT assay. It is filed as functional.
Data set [9] relates to PC-3. Description: Growth inhibition of human PC3 cells preincubated for 6 hrs followed compound washout measured after 24 hrs by XTT assay. It is filed as functional.
Data set [10] concerns NCI-H1299. Description: Growth inhibition of human NCI-H1299 cells preincubated for 6 hrs cotreated with amonafide followed compound washout measured after 24 hrs by XTT assay. The data set is classed as functional.
The subject of data set [11] is NCI-H1299. Description: Growth inhibition of human NCI-H1299 cells preincubated for 6 hrs followed compound washout measured after 24 hrs by XTT assay. The data set is classed as functional.
Data set [12] has as its system WM 266-4. Description: Cell cycle arrest in human WM266.4 cells assessed as accumulation at S phase at 10 uM cotreated with amonafide after 2 hrs by propidium iodide staining based flow cytometry (reference value: 27%). It is filed as functional.
Data set [13] concerns A 172. Description: Growth inhibition of human A172 cells preincubated for 6 hrs followed compound washout measured after 24 hrs by XTT assay. The data set is classed as functional.
Data set [14] concerns Mus musculus. Description: Toxicity in athymic Foxn1 nu mouse xenografted with human WM266.4 cells assessed as body weight loss at 10 mg/kg, ip cotreated with amonafide administered once daily for 3 days followed by resting period of 4 days repeated for 4 weeks starting from 5 days post tumor inoculation. The data set is classed as organism-based. The conditions noted are these: in vivo. (A xenograft is tissue or cells of one species grown in another, often human tumour cells in immunodeficient mice.)

For data set [15], the system named is WM 266-4. Description: Cell cycle arrest in human WM266.4 cells assessed as accumulation at G1 phase at 10 uM cotreated with amonafide after 24 hrs by propidium iodide staining based flow cytometry (reference value: 59%). The data set is classed as functional.
Data set [16] relates to WM 266-4. Description: Cell cycle arrest in human WM266.4 cells assessed as accumulation at G1 phase at 10 uM cotreated with amonafide after 2 hrs by propidium iodide staining based flow cytometry (reference value: 59%). It is filed as functional.
The test system of data set [17] is PC-3. Description: Growth inhibition of human PC3 cells preincubated for 6 hrs cotreated with amonafide followed compound washout measured after 24 hrs by XTT assay. The data set is classed as functional.
In data set [18] the test system is A 172. Description: Growth inhibition of human A172 cells preincubated for 6 hrs cotreated with amonafide followed compound washout measured after 24 hrs by XTT assay. The data set is classed as functional.
In data set [19] the test system is WM 266-4. Description: Cell cycle arrest in human WM266.4 cells assessed as accumulation at G2 phase at 10 uM cotreated with amonafide after 2 hrs by propidium iodide staining based flow cytometry (reference value: 11%). It is filed as functional.
Data set [20] relates to WM 266-4. Description: Growth inhibition of human WM266.4 cells preincubated for 6 hrs followed compound washout measured after 24 hrs by XTT assay. It is filed as functional.
The test system of data set [21] is WM 266-4. Description: Antitumor activity against human WM266.4 cells xenografted in athymic Foxn1 nu mouse assessed as tumor growth inhibition at 10 mg/kg, ip cotreated with amonafide administered once daily for 3 days followed by resting period of 4 days repeated for 4 weeks starting from 5 days post tumor inoculation. The data set is classed as functional, organism-based.

Data set [22] concerns WM 266-4. Description: Growth inhibition of human WM266.4 cells preincubated for 6 hrs cotreated with amonafide followed compound washout measured after 24 hrs by XTT assay. The data set is classed as functional.
Data set [23] has as its system WM 266-4. Description: Cell cycle arrest in human WM266.4 cells assessed as accumulation at G1 phase at 10 uM cotreated with amonafide after 8 hrs by propidium iodide staining based flow cytometry (reference value: 59%). The data set is classed as functional.
In data set [24] the test system is Mus musculus. Description: Toxicity in athymic Foxn1 nu mouse xenografted with human WM266.4 cells assessed as body weight loss at 10 mg/kg, ip cotreated with amonafide administered once daily for 7 days followed by resting period of 2 days repeated for 4 weeks starting from 5 days post tumor inoculation. It is filed as organism-based. The conditions noted are these: in vivo.

Data set [25] concerns WM 266-4. Description: Cell cycle arrest in human WM266.4 cells assessed as accumulation at S phase at 10 uM cotreated with amonafide after 8 hrs by propidium iodide staining based flow cytometry (reference value: 27%). The data set is classed as functional.
Data set [26] concerns WM 266-4. Description: Cell cycle arrest in human WM266.4 cells assessed as accumulation at G2 phase at 10 uM cotreated with amonafide after 24 hrs by propidium iodide staining based flow cytometry (reference value: 11%). It is filed as functional.
The subject of data set [27] is MDA-MB-231. Description: Growth inhibition of human MDA-MB-231 cells preincubated for 6 hrs followed compound washout measured after 24 hrs by XTT assay. The data set is classed as functional.
The subject of data set [28] is WM 266-4. Description: Cell cycle arrest in human WM266.4 cells assessed as accumulation at S phase at 10 uM cotreated with amonafide after 24 hrs by propidium iodide staining based flow cytometry (reference value: 27%). It is filed as functional.
Data set [29] deals with WM 266-4. Description: Growth inhibition of human WM266.4 cells at 25 uM after 24 hrs by XTT assay. It is filed as functional, cell-based.

Activity calls are given as the source filed them. The calls are words filed in the database; no cut-off is given here.

For the molecule `COc1cc2c(c(OC)c1OC)-c1ccc(OC)c(=O)cc1[C@@H](NC(C)=O)CC2`, the “growth inhibition (GI)” value in the data set with A 172 [1], in the data set with PC-3 [2], in the data set with NCI-H1299 [3], with WM 266-4 [4] and with MDA-MB-231 [5] was “Active” throughout.
For the molecule `O=C(O)CCCc1ccc(N(CCCl)CCCl)cc1` [CHLORAMBUCIL], the TGI entry with WM 266-4 [6] and with WM 266-4 [21] was “inactive” in each case. The Activity in the data set on WM 266-4 [7] is 23%; in the data set on WM 266-4 [12] it was 26%; in the data set on Mus musculus [14] it was “Toxic”; in the data set on WM 266-4 [15], 35%; in the data set with WM 266-4 [16], 63.5%; in the data set with WM 266-4 [19], 9.8%. Also, the Activity is 29% in the data set with WM 266-4 [23]; “Toxic” in the data set on Mus musculus [24]; 44.7% in the data set with WM 266-4 [25]; 26% with WM 266-4 [26]; 39% in the data set on WM 266-4 [28]. Also, the GI50 with MDA-MB-231 [8], with PC-3 [9], with NCI-H1299 [10], in the data set with NCI-H1299 [11], with A 172 [13] and with PC-3 [17] was above 25 µM each time. The GI50 in the data set on A 172 [18], in the data set on WM 266-4 [20], in the data set on WM 266-4 [22] and in the data set on MDA-MB-231 [27] was above 25 µM in each case.
Consider `Nc1ccn([C@@H]2O[C@H](COC(=O)CCCc3ccc(N(CCCl)CCCl)cc3)[C@@H](O)[C@@H]2O)c(=O)n1`, for which the “growth inhibition (GI)” value in the data set with PC-3 [9], in the data set with NCI-H1299 [11], in the data set with A 172 [13], in the data set with WM 266-4 [20] and in the data set with MDA-MB-231 [27] was “inactive” each time.
As to `CC(=O)Nc1cc2c3c(cccc3c1)C(=O)N(CCN(C)C)C2=O`, in the data set with WM 266-4 [29], the “growth inhibition (GI)” value was “inactive”.
